Results reported in US11865126B2, “Method for treating anxiety disorders, headache disorders, and eating disorders with psilocybin” (priority 2019, dated 2024).

System: healthy subjects
Experiment: Reading the Mind in the Eyes Test (RMET)
Assay type: in vivo, human
Text: In some embodiments, Reading the Mind in the Eyes Test (RMET) is utilized to evaluate the safety and/or efficacy of psilocybin. The RMET has 36 items, in which subjects are presented with a photograph of the eyes region of the face and must choose 1 of 4 adjectives or phrases to describe the mental state of the person pictured. A definition handout is provided at the beginning of the task and a practice item precedes the first trial.
The following list of outcome measures are non-exhaustive. • a. The short-term change from Baseline (Day −1 [Visit 2]) to Day 7 (Visit 5) in cognitive measures of attention, spatial and working memory and executive function was measured by a composite score of the CANTAB Panel (Spatial Working Memory [SWM], Rapid Visual Information Processing [RVP], Paired Associates Learning [PAL]). • b. The short-term change from Baseline (Day −1 [Visit 2]) to Day 7 (Visit 5) in Social Cognition Panel scales (Pictorial Empathy Test [PET], Reading the Mind in the Eyes Test [RMET], Toronto Empathy Questionnaire [TEQ], Social Value Orientation [SVO], Scale of Social Responsibility [SSR]). • c. The change from Baseline (Day −1 [Visit 2]) to Day 28 (Visit 6) in cognitive measures of attention, spatial and working memory and executive function as measured by a composite score of the CANTAB Panel (SWM, RVP, PAL). • d. The long-term change from Baseline (Day −1 [Visit 2]) to Day 84 (Visit 7) in Social Cognition Panel scales (PET, RMET, TEQ, SVO, SSR). • e. Dose-related differences between cognitive effects of psilocybin at Baseline (Day −1 [Visit 2]), Day 7 (Visit 5) and Day 28 (Visit 6), as measured by a composite score of the CANTAB Panel (SWM, RVP, PAL). • f. Dose-related differences between psychological effects of psilocybin at Baseline (Day −1 [Visit 2]), Day 7 (Visit 5) and Day 84 (Visit 7), as measured by Social Cognition Panel scales (PET, RMET, TEQ, SVO, SSR). • g. Differences in cognitive effects of psilocybin between psilocybin-naïve and experienced subjects at Baseline (Day −1 [Visit 2]), Day 7 (Visit 5) and Day 28 (Visit 6), as measured by a composite score of the CANTAB Panel (SWM, RVP, PAL). • h. Differences in Positive and Negative Affect Schedule (PANAS) after study drug administration on Day 0 (Visit 3). • i. Differences between psilocybin and placebo in the Emotion Recognition Test (ERT), Intra-Extra Dimensional Set Shift (IED), One Touch Stockings (OTS), Verbal Fluency and Digit Span Forward at Day 7 (Visit 5). • j. A composite score of the CANTAB Panel, including the following tests: • i. Spatial Working Memory (SWM) (performed at Visit 2, Visit 5, and Visit 6). • ii. Rapid Visual Information Processing (RVP) (performed at Visit 2, Visit 5, and Visit 6). • iii. Paired Associates Learning (PAL) (performed at Visit 2, Visit 5, and Visit 6). • k. Cognitive Flexibility Panel • i. Emotion Recognition Task (ERT) (performed at Visit 5). • ii. Intra-Extra Dimensional Set Shift (IED) (performed at Visit 5). • iii. One Touch Stockings (OTS) (performed at Visit 5). • iv. Verbal Fluency (performed at Visit 5). • v. Digit Span Forward (performed at Visit 5). • l. Five Dimension Altered States of Consciousness questionnaire (5D-ASC) (performed at Visit 3). • m. PANAS (performed at Visit 2 and Visit 3). • n. NEO-Five Factor Inventory (NEO-FFI) (performed at Visit 2, Visit 5, and Visit 7). • o. Symptom Checklist-90 item (SCL-90) (performed at Visit 2, Visit 5, and Visit 7). • p. Life Changes Inventory (LCI): The LCI measures changes in attitudes and values after near-death experiences often used to evaluate personal transformation following spiritually oriented experiences and practices. (performed at Visit 5 and Visit 7). • q. Social Cognition Panel scales • i. Pictorial Empathy Test (PET) (performed at Visit 2, Visit 5, and Visit 7). • ii. Reading the Mind in the Eyes Test (RMET) (performed at Visit 2, Visit 5, and Visit 7). • iii. Social Value Orientation (SVO) (performed at Visit 2, Visit 5, and Visit 7). • iv. […]

SMILES: CN(C)CCc1c[nH]c2cccc(OP(=O)(O)O)c12 [psilocybin]
- RMET change from baseline, LS mean difference Psilocybin 10 mg - Placebo (Day 7, MMRM): 0.1
- RMET change from baseline, LS mean difference Psilocybin 25 mg - Placebo (Day 7, MMRM): 0.2
- RMET change from baseline, LS mean difference Psilocybin 25 mg-10 mg (Day 7, MMRM): 0.0
- RMET change from baseline, LS mean difference Psilocybin 10 mg - Placebo (Day 84, MMRM): 0.2
- RMET change from baseline, LS mean difference Psilocybin 25 mg - Placebo (Day 84, MMRM): 0.5
- RMET change from baseline, LS mean difference Psilocybin 25 mg-10 mg (Day 84, MMRM): 0.3
